Results as given in ChEMBL document CHEMBL4308841, “Synthesis, in vitro antiproliferative activity, and kinase inhibitory effects of pyrazole-containing diarylureas and diarylamides” (Eur J Med Chem, 2018).

Assays:
[1] = test system: CCRF-CEM; test: Growth inhibition of human CCRF-CEM cells incubated for 48 hrs by sulforhodamine B assay; type: functional, cell-based
[2] = test system: K562; test: Growth inhibition of human K562 cells incubated for 48 hrs by sulforhodamine B assay; type: functional, cell-based; conditions: K562, 48 h
[3] = test system: NCI-H460; test: Growth inhibition of human NCI-H460 cells incubated for 48 hrs by sulforhodamine B assay; type: functional, cell-based; conditions: NCI-H460, 48 h
[4] = test system: KM12; test: Growth inhibition of human KM12 cells incubated for 48 hrs by sulforhodamine B assay; type: functional, cell-based; conditions: KM12, 48 h
[5] = test system: Malme-3M; test: Growth inhibition of human MALME-3M cells incubated for 48 hrs by sulforhodamine B assay; type: functional, cell-based
[6] = test system: UACC-62; test: Growth inhibition of human UACC62 cells incubated for 48 hrs by sulforhodamine B assay; type: functional, cell-based; conditions: UACC-62, 48 h
[7] = test system: PC-3; test: Growth inhibition of human PC3 cells incubated for 48 hrs by sulforhodamine B assay; type: functional, cell-based; conditions: PC-3, 48 h
[8] = test system: OVCAR-4; test: Growth inhibition of human OVCAR4 cells assessed as cell growth at 0.01 uM incubated for 48 hrs by sulforhodamine B assay relative to control; type: functional; conditions: OVCAR-4, 48 h, read-out: Activity
[9] = test system: HL-60(TB); test: Growth inhibition of human HL-60(TB) cells assessed as cell growth at 0.1 uM incubated for 48 hrs by sulforhodamine B assay relative to control; type: functional; conditions: HL-60, 48 h, read-out: Activity
[10] = test system: NCI-H226; test: Growth inhibition of human NCI-H226 cells assessed as cell growth at 0.1 uM incubated for 48 hrs by sulforhodamine B assay relative to control; type: functional; conditions: NCI-H226, 48 h, read-out: Activity
[11] = test system: NCI-H522; test: Growth inhibition of human NCI-H522 cells assessed as cell growth at 0.1 uM incubated for 48 hrs by sulforhodamine B assay relative to control; type: functional; conditions: NCI-H522, 48 h, read-out: Activity
[12] = test system: HT-29; test: Growth inhibition of human HT-29 cells assessed as cell growth at 0.1 uM incubated for 48 hrs by sulforhodamine B assay relative to control; type: functional; conditions: HT-29, 48 h, read-out: Activity
[13] = test system: M14; test: Growth inhibition of human M14 cells assessed as cell growth at 0.1 uM incubated for 48 hrs by sulforhodamine B assay relative to control; type: functional; conditions: M14, 48 h, read-out: Activity
[14] = test system: MDA-MB-231; test: Growth inhibition of human MDA-MB-231 cells assessed as cell growth at 0.1 uM incubated for 48 hrs by sulforhodamine B assay relative to control; type: functional; conditions: MDA-MB-231, 48 h, read-out: Activity
[15] = test system: MDA-MB-468; test: Growth inhibition of human MDA-MB-468 cells assessed as cell growth at 0.1 uM incubated for 48 hrs by sulforhodamine B assay relative to control; type: functional; conditions: MDA-MB-468, 48 h, read-out: Activity
[16] = test system: MOLT-4; test: Growth inhibition of human MOLT4 cells assessed as cell growth at 1 uM incubated for 48 hrs by sulforhodamine B assay relative to control; type: functional; conditions: MOLT-4, 48 h, read-out: Activity
[17] = test system: A549; test: Growth inhibition of human A549/ATCC cells assessed as cell growth at 1 uM incubated for 48 hrs by sulforhodamine B assay relative to control; type: functional; conditions: A549, 48 h, read-out: Activity
[18] = test system: SNB-75; test: Growth inhibition of human SNB75 cells assessed as cell growth at 1 uM incubated for 48 hrs by sulforhodamine B assay relative to control; type: functional; conditions: SNB-75, 48 h, read-out: Activity
[19] = test system: U-251; test: Growth inhibition of human U251 cells assessed as cell growth at 1 uM incubated for 48 hrs by sulforhodamine B assay relative to control; type: functional; conditions: U-251, 48 h, read-out: Activity
[20] = test system: LOX IMVI; test: Growth inhibition of human LOXIMVI cells assessed as cell growth at 1 uM incubated for 48 hrs by sulforhodamine B assay relative to control; type: functional; conditions: read-out: Activity
[21] = test system: OVCAR-4; test: Growth inhibition of human OVCAR4 cells assessed as cell growth at 1 uM incubated for 48 hrs by sulforhodamine B assay relative to control; type: functional; conditions: OVCAR-4, 48 h, read-out: Activity
[22] = test system: MCF7; test: Growth inhibition of human MCF7 cells assessed as cell growth at 1 uM incubated for 48 hrs by sulforhodamine B assay relative to control; type: functional; conditions: MCF7, 48 h, read-out: Activity
[23] = test system: MOLT-4; test: Growth inhibition of human MOLT4 cells assessed as cell growth at 100 uM incubated for 48 hrs by sulforhodamine B assay relative to control; type: functional; conditions: MOLT-4, 48 h, read-out: Activity
[24] = test system: SR; test: Growth inhibition of human SR cells assessed as cell growth at 100 uM incubated for 48 hrs by sulforhodamine B assay relative to control; type: functional; conditions: read-out: Activity
[25] = test system: NCI-H460; test: Growth inhibition of human NCI-H460 cells assessed as cell growth at 100 uM incubated for 48 hrs by sulforhodamine B assay relative to control; type: functional; conditions: NCI-H460, 48 h, read-out: Activity
[26] = test system: HCC 2998; test: Growth inhibition of human HCC2998 cells assessed as cell growth at 100 uM incubated for 48 hrs by sulforhodamine B assay relative to control; type: functional; conditions: HCC 2998, 48 h, read-out: Activity
[27] = test system: HCT-15; test: Growth inhibition of human HCT15 cells assessed as cell growth at 100 uM incubated for 48 hrs by sulforhodamine B assay relative to control; type: functional; conditions: HCT-15, 48 h, read-out: Activity
[28] = test system: UACC-62; test: Growth inhibition of human UACC62 cells assessed as cell growth at 100 uM incubated for 48 hrs by sulforhodamine B assay relative to control; type: functional; conditions: UACC-62, 48 h, read-out: Activity
[29] = test system: A498; test: Growth inhibition of human A498 cells assessed as cell growth at 100 uM incubated for 48 hrs by sulforhodamine B assay relative to control; type: functional; conditions: A498, 48 h, read-out: Activity
[30] = read-out: LC50 (the source's name)
[31] = read-out: pLC50 (the source's name) (converted)

SMILES: O=C(Nc1cccc(-n2cc(-c3ccncc3)c(-c3cc(O)cc(Cl)c3)n2)c1)Nc1ccc(Cl)c(C(F)(F)F)c1
- GI50 ([1]; read-out: GI50): 2730 nM
- CC50 [1, 30]: > 100 µM
- TGI ([1]; read-out: TGI): 85 µM
- GI50 ([1]; read-out: pGI50 (converted)): 2750 nM
- CC50 [1, 31]: > 100 µM
- TGI ([1]; read-out: pTGI (converted)): 8.91 µM
- GI50 ([2]; read-out: GI50): 2590 nM
- LC50 ([2]; read-out: LC50): > 100 µM
- TGI ([2]; read-out: TGI): 11 µM
- GI50 ([2]; read-out: pGI50 (converted)): 2570 nM
- LC50 ([2]; read-out: pLC50 (converted)): > 100 µM
- TGI ([2]; read-out: pTGI (converted)): 12 µM
- GI50 ([3]; read-out: GI50): 2590 nM
- CC50 [3, 30]: 85.8 µM
- TGI ([3]; read-out: TGI): 73.7 µM
- GI50 ([3]; read-out: pGI50 (converted)): 2570 nM
- CC50 [3, 31]: 87.1 µM
- TGI ([3]; read-out: pTGI (converted)): 7.41 µM
- GI50 ([4]; read-out: GI50): 2500 nM
- CC50 [4, 30]: 47.2 µM
- TGI ([4]; read-out: TGI): 90.6 µM
- GI50 ([4]; read-out: pGI50 (converted)): 2570 nM
- CC50 [4, 31]: 46.8 µM
- TGI ([4]; read-out: pTGI (converted)): 9.77 µM
- GI50 ([5]; read-out: GI50): 2370 nM
- CC50 [5, 30]: 24.3 µM
- TGI ([5]; read-out: TGI): 62.5 µM
- GI50 ([5]; read-out: pGI50 (converted)): 2340 nM
- CC50 [5, 31]: 24.5 µM
- TGI ([5]; read-out: pTGI (converted)): 6.31 µM
- IC50 [6]: 2080 nM
- GI50 ([6]; read-out: GI50): 2000 nM
- CC50 [6, 30]: 91.9 µM
- TGI ([6]; read-out: TGI): 43.8 µM
- GI50 ([6]; read-out: pGI50 (converted)): 2090 nM
- CC50 [6, 31]: 9.12 µM
- TGI ([6]; read-out: pTGI (converted)): 4.37 µM
- IC50 [7]: 2100 nM
- GI50 ([7]; read-out: GI50): 2100 nM
- CC50 [7, 30]: 90.3 µM
- TGI ([7]; read-out: TGI): 84.2 µM
- GI50 ([7]; read-out: pGI50 (converted)): 2630 nM
- CC50 [7, 31]: 79.4 µM
- TGI ([7]; read-out: pTGI (converted)): 6.46 µM
- growth at 0.01 µM [8]: 99%
- growth at 0.1 µM [9]: 89%
- growth at 0.1 µM [10]: 95%
- growth at 0.1 µM [11]: 83%
- growth at 0.1 µM [12]: 93%
- growth at 0.1 µM [13]: 91%
- growth at 0.1 µM [14]: 105%
- growth at 0.1 µM [15]: 94%
- growth at 1 µM [16]: 52%
- growth at 1 µM [17]: 81%
- growth at 1 µM [18]: 54%
- growth at 1 µM [19]: 56%
- growth at 1 µM [20]: 93%
- growth at 1 µM [21]: 105%
- growth at 1 µM [22]: 91%
- growth at 100 µM [23]: -39%
- growth at 100 µM [24]: -40%
- growth at 100 µM [25]: -52%
- growth at 100 µM [26]: -88%
- growth at 100 µM [27]: -57%
- growth at 100 µM [28]: -85%
- growth at 100 µM [29]: -35%
